Source: patent US20220251569A1, “TREATMENT AND PREVENTION OF DISEASE MEDIATED BY WWP2” (National University of Singapore, priority 2019, published 2022)

Key:
WWP2-N = target: T1, WWP2-N (Homo sapiens, UniProt O00308); assay: Octet RED binding assay to WWP2-N; details: compound at 250 μM, binding measured over 120 seconds, Octet RED96e
T1 construct: GST; made in house
T1 sequence (O00308 1-335 limits assumed): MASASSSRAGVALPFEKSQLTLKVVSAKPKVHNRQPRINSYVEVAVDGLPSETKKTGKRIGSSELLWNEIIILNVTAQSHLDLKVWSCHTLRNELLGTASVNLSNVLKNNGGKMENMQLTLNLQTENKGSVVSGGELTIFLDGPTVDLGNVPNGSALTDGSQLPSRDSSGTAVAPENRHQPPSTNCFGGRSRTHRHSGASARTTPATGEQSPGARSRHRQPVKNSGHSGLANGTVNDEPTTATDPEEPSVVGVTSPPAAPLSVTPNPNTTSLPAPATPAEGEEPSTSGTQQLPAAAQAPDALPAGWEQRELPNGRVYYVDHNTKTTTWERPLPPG
Protocol: (§1) The WWP2 isoforms WWP2-FL, WWP2-N and WWP2-C were expressed as a GST fusion protein in bacteria and purified using glutathione sepharose 4B resin (GE Healthcare) according to the manufacturer's instructions. Expression and purity of the expressed WWP2 proteins was analysed by Coomassie Blue staining of the gel after separation by SDS-PAGE and western blotting (WB).
(§2) Binding assays were performed using the Octet RED96e System (FortéBio Inc., Menlo Park, Calif.). WWP2-FL, WWP2-N and WWP2-C proteins were biotinylated using NHS-PEO4-biotin (Pierce). Super-streptavidin (SSA) biosensors (FortéBio Inc., Menlo Park, Calif.) were coated in a solution containing 1 μM of biotinylated protein for 4 hours at 25° C. A duplicate set of sensors were incubated in assay buffer (1× kinetics buffer of ForteBio Inc.) with 5% DMSO without protein, for use as a background binding control. Both sets of sensors were blocked with a solution of 10 ug/ml Biocytin for 5 minutes at 25° C. A negative control of 5% DMSO was also used.
(§3) Binding of samples containing the different compounds (at a concentration of 250 μM) to coated and uncoated reference sensors was measured over 120 seconds. Analysis of the data was performed using a double reference subtraction (sample and sensor references) in the FortéBio data analysis software. […]

WWP2-C = target: T2, WWP2-C (Homo sapiens, UniProt O00308); assay: Octet RED binding assay to WWP2-C; details: compound at 250 μM, binding measured over 120 seconds, Octet RED96e
T2 construct: GST; made in house
T2 sequence (O00308 440-870 limits assumed): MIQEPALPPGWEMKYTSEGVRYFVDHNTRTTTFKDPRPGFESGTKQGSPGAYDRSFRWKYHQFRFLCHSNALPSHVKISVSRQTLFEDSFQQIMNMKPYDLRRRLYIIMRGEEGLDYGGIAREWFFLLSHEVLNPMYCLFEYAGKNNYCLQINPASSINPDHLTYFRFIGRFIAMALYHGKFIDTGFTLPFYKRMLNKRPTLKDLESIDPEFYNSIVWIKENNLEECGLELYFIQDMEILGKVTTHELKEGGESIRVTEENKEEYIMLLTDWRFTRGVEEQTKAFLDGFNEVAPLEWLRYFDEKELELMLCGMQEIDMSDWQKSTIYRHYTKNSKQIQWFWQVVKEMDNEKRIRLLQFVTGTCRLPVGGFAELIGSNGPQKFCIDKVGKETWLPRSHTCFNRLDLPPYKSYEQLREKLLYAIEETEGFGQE
Protocol: as §1, §2, §3

[1] = test system: primary renal fibroblasts; assay: Cellular fibrosis assay (ACTA2 immunostaining) in TGFβ1-stimulated primary renal fibroblasts; format: cell-based, mice; details: compound 0.3 mM for 1 hour, then TGFβ1 stimulation 72 hours; fluorescence microscopy
Protocol: Primary renal fibroblasts were obtained from the renal cortex of mice. Minced renal cortex pieces (1-3 mm^3) were placed in 6 cm dishes with DMEM supplemented with 20% fetal bovine serum for less than 10 days to generate mice renal fibroblasts (P0), and passaged to P1 and P2 in DMEM supplemented with 10% fetal bovine serum for experiments. To mimic the in vivo activation of renal fibroblasts in fibrosis, cells were treated with human transforming growth factor-β1 (TGFβ1) (Sigma Aldrich, #T7039) at a concentration of 5 ng/μl for 72 hours.
To test the anti-fibrotic effect of candidate small-molecules, cells were treated with each compound (0.3 mM) for 1 hour, followed by stimulation with TGFβ1 before harvesting. After fixation with ice-cold acetone and blocking with 1% BSA for 30 min at RT, the slides were incubated with primary anti-smooth muscle a actin (ACTA2) antibody (ACTA2 is a widely recognised myofibroblast marker, indicating fibroblast activation) (Sigma-Aldrich, #A5228, 1:100) overnight at 4° C. Following washing steps, slides were incubated with Bovine Anti-Mouse IgG-CFL 488 secondary antibody (Santacruz Biotechnology, #sc-362256, 1:100) for 2 hours at RT. VectaShield Mounting Medium (Vector laboratories, #H-1200) with DAPI was used to stain the nuclei and the slides were covered by coverslip. Slides were imaged on Leica fluorescence microscope (Leica).

Binding level (nm) to WWP2 N isoform (WWP2-N): 0.1253 nm
Binding level (nm) to WWP2 C isoform (WWP2-C): 0.0061 nm
Compound: COc1ccc(-n2c(=O)c3c4c(sc3n(CC(=O)NCc3ccco3)c2=O)CCC4)c(OC)c1 [EP1, 2-[11-(2,4-dimethoxyphenyl)-10,12-dioxo-7-thia-9,11-diazatricyclo[6.4.0.02.6]dodeca-1(8),2(6)-dien-9-yl]-N-(furan-2-ylmethyl)acetamide]
Anti-fibrotic response in renal fibroblasts (ACTA2 expression) [1]: reduced expression of ACTA2
